Measurements taken from ChEMBL document CHEMBL5291721, “A preclinical secondary pharmacology resource illuminates target-adverse drug reaction associations of marketed drugs” (Nat Commun, 2023).

What was measured:
[1] = target: Neuronal acetylcholine receptor subunit alpha-4 (Homo sapiens, UniProt P43681)
[2] = target: T1, Alpha-2A adrenergic receptor (Homo sapiens, UniProt P08913); type: functional, cell-based
T1 sequence (P08913 whole entry): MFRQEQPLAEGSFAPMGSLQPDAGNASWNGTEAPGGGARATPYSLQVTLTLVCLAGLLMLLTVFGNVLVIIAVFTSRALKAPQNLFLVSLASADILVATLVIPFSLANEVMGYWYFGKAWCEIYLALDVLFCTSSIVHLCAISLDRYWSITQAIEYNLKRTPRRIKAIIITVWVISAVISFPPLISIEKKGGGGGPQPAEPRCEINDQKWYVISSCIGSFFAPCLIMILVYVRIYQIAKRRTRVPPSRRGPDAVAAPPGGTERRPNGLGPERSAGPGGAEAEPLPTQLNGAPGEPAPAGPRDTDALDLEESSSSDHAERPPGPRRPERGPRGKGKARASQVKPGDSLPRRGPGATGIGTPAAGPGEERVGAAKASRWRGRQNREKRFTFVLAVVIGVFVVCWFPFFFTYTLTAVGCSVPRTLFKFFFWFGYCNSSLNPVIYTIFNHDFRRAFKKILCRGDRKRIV

[3] = target: Vasopressin V2 receptor (Homo sapiens, UniProt P30518)
[4] = target: T2, Equilibrative nucleoside transporter 1 (Homo sapiens, UniProt Q99808)
T2 sequence (Q99808 whole entry): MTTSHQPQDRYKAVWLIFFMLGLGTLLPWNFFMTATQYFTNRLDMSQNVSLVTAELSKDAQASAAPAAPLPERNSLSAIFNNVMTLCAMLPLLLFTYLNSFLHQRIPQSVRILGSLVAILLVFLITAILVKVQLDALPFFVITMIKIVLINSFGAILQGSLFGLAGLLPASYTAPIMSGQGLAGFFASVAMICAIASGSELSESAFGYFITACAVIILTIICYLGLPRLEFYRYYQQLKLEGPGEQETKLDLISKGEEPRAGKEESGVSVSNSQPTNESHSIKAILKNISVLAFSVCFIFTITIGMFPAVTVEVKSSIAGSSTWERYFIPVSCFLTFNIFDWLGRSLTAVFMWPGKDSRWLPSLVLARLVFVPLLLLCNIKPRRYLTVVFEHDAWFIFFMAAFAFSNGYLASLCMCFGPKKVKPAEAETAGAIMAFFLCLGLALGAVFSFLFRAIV

[5] = target: T3, Alpha-2B adrenergic receptor (Homo sapiens, UniProt P18089)
T3 sequence (P18089 whole entry): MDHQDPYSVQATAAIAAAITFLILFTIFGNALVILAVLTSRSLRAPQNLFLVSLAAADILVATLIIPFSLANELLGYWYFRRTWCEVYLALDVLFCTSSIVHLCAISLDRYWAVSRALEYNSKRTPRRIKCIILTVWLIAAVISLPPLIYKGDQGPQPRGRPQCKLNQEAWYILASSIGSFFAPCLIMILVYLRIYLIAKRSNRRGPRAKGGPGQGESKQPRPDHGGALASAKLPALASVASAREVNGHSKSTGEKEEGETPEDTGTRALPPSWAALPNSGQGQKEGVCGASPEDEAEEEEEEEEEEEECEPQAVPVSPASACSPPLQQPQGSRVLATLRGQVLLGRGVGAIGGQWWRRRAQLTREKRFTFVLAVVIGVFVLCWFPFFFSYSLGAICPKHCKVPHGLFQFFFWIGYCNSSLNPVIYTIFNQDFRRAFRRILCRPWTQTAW

[6] = target: T4, Alpha-1A adrenergic receptor (Homo sapiens, UniProt P35348); type: functional, cell-based
T4 sequence (P35348 whole entry): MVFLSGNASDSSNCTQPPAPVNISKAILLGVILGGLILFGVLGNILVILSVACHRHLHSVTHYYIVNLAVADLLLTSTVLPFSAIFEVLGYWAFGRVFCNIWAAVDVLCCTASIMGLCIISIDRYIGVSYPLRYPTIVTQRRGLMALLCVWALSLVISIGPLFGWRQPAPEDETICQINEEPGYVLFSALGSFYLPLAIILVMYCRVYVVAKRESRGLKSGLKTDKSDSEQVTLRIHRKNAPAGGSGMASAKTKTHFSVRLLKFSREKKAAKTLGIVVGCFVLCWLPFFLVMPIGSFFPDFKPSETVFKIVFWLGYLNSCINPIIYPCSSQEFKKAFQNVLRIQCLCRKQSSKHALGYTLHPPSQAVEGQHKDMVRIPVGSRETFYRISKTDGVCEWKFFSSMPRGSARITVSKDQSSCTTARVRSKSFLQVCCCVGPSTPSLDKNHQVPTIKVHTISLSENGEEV

[7] = target: Histamine H3 receptor (Homo sapiens, UniProt Q9Y5N1)
[8] = target: Beta-1 adrenergic receptor (Homo sapiens, UniProt P08588); type: functional
[9] = target: Histamine H1 receptor (Homo sapiens, UniProt P35367)
[10] = target: 5-hydroxytryptamine receptor 2B (Homo sapiens, UniProt P41595); type: functional, cell-based
[11] = target: T5, 5-hydroxytryptamine receptor 1A (Homo sapiens, UniProt P08908); type: functional, cell-based
T5 sequence (P08908 whole entry): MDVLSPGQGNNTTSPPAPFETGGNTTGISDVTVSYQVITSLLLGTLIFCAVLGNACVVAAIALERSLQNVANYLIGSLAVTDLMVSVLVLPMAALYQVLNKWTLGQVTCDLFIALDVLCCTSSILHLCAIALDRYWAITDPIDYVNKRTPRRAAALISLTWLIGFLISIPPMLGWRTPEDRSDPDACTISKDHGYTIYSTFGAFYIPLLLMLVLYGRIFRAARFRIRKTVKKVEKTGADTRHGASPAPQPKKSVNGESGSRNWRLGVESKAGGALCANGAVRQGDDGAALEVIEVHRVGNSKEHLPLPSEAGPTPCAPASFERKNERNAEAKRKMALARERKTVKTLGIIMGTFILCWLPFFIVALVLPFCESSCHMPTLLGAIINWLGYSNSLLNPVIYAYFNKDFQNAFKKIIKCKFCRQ

[12] = target: D(1A) dopamine receptor (Homo sapiens, UniProt P21728); type: functional, cell-based
[13] = target: 5-hydroxytryptamine receptor 2A (Homo sapiens, UniProt P28223); type: functional, cell-based
Further: assay procedure not described here.

Sequence of 5-hydroxytryptamine receptor 2A (P28223 whole entry): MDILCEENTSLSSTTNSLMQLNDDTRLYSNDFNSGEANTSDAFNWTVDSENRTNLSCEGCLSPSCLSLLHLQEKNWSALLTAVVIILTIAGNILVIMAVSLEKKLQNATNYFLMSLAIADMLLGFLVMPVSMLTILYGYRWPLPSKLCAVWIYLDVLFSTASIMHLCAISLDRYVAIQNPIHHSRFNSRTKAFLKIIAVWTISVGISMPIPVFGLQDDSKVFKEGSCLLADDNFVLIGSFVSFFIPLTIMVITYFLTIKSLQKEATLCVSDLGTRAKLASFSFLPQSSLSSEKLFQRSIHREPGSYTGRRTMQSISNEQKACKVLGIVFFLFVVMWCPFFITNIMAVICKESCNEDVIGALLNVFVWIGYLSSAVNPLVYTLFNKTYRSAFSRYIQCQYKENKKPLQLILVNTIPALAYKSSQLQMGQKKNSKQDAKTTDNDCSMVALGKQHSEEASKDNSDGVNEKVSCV
Sequence of Neuronal acetylcholine receptor subunit alpha-4 (P43681 whole entry): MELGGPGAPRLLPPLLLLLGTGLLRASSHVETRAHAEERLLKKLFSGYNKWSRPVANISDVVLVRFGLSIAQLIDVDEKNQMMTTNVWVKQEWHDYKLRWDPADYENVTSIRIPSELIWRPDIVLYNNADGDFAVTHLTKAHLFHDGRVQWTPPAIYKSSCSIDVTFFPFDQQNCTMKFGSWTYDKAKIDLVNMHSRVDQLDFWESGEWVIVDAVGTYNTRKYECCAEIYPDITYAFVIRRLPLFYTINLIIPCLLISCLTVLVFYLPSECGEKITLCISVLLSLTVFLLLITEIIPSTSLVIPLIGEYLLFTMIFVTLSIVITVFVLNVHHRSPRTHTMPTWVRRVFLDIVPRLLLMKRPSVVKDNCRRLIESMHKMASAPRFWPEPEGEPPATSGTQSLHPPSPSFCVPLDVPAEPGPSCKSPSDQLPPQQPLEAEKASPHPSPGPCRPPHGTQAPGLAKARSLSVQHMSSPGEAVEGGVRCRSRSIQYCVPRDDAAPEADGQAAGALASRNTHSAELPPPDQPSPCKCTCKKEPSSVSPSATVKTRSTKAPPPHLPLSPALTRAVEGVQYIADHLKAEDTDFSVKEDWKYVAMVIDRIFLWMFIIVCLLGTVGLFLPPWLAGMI
Sequence of D(1A) dopamine receptor (P21728 whole entry): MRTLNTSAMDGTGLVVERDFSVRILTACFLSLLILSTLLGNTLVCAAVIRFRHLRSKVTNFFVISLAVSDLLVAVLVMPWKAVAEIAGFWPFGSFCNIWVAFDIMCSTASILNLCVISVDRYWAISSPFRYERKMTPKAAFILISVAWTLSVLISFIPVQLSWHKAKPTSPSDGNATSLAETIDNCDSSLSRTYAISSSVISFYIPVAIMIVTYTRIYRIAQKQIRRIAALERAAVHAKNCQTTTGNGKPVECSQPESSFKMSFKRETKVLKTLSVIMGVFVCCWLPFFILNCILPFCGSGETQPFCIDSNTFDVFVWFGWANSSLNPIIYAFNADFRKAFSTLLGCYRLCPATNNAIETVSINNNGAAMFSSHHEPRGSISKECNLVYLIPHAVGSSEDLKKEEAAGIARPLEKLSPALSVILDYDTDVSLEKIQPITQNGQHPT
Sequence of Vasopressin V2 receptor (P30518 whole entry): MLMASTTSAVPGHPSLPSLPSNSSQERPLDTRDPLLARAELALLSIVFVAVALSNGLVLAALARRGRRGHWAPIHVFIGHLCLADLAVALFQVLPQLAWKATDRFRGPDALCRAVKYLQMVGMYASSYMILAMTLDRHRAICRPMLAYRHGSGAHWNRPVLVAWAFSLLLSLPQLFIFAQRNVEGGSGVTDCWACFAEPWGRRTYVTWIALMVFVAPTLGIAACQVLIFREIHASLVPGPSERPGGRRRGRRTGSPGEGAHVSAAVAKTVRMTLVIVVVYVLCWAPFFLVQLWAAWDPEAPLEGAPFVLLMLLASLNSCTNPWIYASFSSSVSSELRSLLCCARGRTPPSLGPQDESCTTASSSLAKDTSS
Sequence of Histamine H1 receptor (P35367 whole entry): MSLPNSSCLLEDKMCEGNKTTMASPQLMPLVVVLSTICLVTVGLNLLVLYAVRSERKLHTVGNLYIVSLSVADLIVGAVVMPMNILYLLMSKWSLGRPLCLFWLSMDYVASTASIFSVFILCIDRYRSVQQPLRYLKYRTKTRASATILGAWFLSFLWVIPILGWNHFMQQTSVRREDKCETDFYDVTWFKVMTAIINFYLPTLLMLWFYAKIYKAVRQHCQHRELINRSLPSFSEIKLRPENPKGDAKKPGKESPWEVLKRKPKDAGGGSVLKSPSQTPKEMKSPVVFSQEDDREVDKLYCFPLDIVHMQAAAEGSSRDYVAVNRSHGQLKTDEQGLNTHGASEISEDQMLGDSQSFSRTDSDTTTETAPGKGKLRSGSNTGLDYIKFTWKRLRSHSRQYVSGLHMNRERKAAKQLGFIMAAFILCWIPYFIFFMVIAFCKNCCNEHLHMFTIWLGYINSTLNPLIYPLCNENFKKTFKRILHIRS
Sequence of Histamine H3 receptor (Q9Y5N1 whole entry): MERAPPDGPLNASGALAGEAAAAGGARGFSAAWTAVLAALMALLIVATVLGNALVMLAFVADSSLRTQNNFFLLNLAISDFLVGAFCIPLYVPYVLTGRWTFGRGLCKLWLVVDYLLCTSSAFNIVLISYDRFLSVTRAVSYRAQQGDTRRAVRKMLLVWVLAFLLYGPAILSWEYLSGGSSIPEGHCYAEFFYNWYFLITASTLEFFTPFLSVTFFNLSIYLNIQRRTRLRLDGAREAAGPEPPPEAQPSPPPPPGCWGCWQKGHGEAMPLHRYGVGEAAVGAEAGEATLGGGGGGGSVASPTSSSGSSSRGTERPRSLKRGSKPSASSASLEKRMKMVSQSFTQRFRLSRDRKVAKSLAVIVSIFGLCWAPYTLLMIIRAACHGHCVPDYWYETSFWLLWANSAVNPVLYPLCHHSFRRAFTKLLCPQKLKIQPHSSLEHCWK
Sequence of Beta-1 adrenergic receptor (P08588 whole entry): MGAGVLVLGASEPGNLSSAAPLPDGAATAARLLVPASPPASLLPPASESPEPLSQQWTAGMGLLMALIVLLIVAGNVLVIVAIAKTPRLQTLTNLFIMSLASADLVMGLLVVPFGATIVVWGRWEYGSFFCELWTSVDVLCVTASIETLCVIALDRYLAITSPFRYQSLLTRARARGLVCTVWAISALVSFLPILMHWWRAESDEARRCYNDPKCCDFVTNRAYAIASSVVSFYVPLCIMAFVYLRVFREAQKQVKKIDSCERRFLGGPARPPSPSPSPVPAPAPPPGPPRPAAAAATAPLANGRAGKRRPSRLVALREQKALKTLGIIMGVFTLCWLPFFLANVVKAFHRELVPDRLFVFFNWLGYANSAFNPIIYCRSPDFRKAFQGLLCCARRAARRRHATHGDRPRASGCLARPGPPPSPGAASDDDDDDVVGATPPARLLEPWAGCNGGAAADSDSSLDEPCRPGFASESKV
Sequence of 5-hydroxytryptamine receptor 2B (P41595 whole entry): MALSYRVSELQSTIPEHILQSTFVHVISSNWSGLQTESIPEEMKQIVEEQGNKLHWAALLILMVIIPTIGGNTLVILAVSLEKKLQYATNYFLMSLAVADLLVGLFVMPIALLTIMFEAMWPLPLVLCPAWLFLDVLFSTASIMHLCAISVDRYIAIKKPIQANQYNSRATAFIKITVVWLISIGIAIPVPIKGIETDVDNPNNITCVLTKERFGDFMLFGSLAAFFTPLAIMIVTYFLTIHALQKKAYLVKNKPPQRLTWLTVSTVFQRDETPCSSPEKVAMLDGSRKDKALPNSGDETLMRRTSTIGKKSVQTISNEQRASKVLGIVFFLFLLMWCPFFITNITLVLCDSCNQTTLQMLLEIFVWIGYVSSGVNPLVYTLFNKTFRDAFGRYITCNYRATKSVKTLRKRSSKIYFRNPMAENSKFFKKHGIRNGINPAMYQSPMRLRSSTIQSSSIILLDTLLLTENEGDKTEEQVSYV

Compound	AC50 [1]	AC50 [2]	AC50 [3]	AC50 [4]	AC50 [5]	AC50 [6]	AC50 [7]	AC50 [8]	AC50 [9]	AC50 [10]	AC50 [11]	AC50 [12]	AC50 [13]
COc1ccc2cccc(CCNC(C)=O)c2c1 [AGOMELATINE]	> 10 µM	> 30 µM	> 30 µM	> 30 µM	> 10 µM	> 30 µM	> 10 µM	> 10 µM	> 10 µM	2.07 µM	> 30 µM	> 10 µM	
CC(=O)OCC(=O)[C@@]12OC3(CCCC3)O[C@@H]1C[C@H]1[C@@H]3CCC4=CC(=O)C=C[C@]4(C)[C@@]3(F)[C@@H](O)C[C@@]12C [AMCINONIDE]	> 10 µM	> 10 µM	> 10 µM	> 10 µM	> 10 µM			> 10 µM	> 10 µM	> 10 µM	> 10 µM	> 10 µM	> 10 µM
CN1CCc2cccc3c2[C@H]1Cc1ccc(O)c(O)c1-3 [APOMORPHINE]	> 10 µM	3.8 µM	> 30 µM	> 30 µM			> 10 µM	> 10 µM	15 µM	4.7 µM			1.79 µM
CN1C(=O)CC(=O)N(c2ccccc2)c2cc(Cl)ccc21 [CLOBAZAM]	> 10 µM	> 10 µM	> 10 µM	> 10 µM	> 10 µM			> 10 µM	> 10 µM	> 10 µM	> 10 µM	> 10 µM	> 10 µM
[H]/N=C(/N)c1ccc(NCc2nc3cc(C(=O)N(CCC(=O)O)c4ccccn4)ccc3n2C)cc1 [DABIGATRAN]	> 30 µM	> 30 µM	> 30 µM	> 30 µM	> 30 µM	> 30 µM	> 30 µM	> 30 µM	> 30 µM	> 30 µM	> 30 µM	> 30 µM	
CCCCCCCCCCCC[N+](C)(C)CCOc1ccccc1 [DOMIPHEN]	> 30 µM		7.3 µM	> 30 µM	3.8 µM		12 µM	3.1 µM	12 µM	11 µM	22 µM	> 30 µM	0.94 µM
CN[C@@H](C)[C@H](O)c1ccccc1 [EPHEDRINE]	> 10 µM	> 10 µM	> 30 µM	> 30 µM	> 10 µM		> 10 µM	> 10 µM	> 10 µM	> 10 µM	> 10 µM	> 10 µM	
O=C(CCCCC(=O)Nc1c(I)cc(I)c(C(=O)O)c1I)Nc1c(I)cc(I)c(C(=O)O)c1I [IODIPAMIDE]	> 10 µM	> 10 µM	> 10 µM	> 10 µM	> 10 µM			> 10 µM	> 10 µM	> 10 µM	> 10 µM	> 30 µM	> 10 µM
CC(C)[N+](C)(CCC(C(N)=O)(c1ccccc1)c1ccccc1)C(C)C [ISOPROPAMIDE]	> 10 µM	> 10 µM	> 10 µM	> 10 µM	> 10 µM			> 10 µM	> 10 µM	> 10 µM	> 10 µM	> 10 µM	> 10 µM
CN1CC[C@]23CCCC[C@H]2[C@H]1Cc1ccc(O)cc13 [LEVORPHANOL]	> 10 µM	9 µM	> 10 µM	> 30 µM	> 30 µM			> 10 µM	> 30 µM	> 10 µM	> 10 µM	> 30 µM	> 10 µM
CC1=CC(=O)c2ccccc2C1=O [MENADIONE]	> 10 µM	> 10 µM	> 10 µM	> 10 µM	> 10 µM			> 10 µM	> 30 µM	> 10 µM	> 10 µM	> 10 µM	> 10 µM
CN1CCCN=C1COC(=O)C(O)(c1ccccc1)C1CCCCC1 (stereo not given) [OXYPHENCYCLIMINE]	> 10 µM	> 10 µM	> 10 µM	27.5 µM	> 10 µM			> 10 µM	0.99 µM	> 10 µM	> 10 µM	> 10 µM	> 10 µM
CN1CCC2=C(C1)C(c1ccccc1)c1ccccc12 (stereo not given) [PHENINDAMINE]	> 10 µM	> 10 µM	> 10 µM	> 30 µM	> 10 µM			> 10 µM	8.1 µM	> 10 µM	> 10 µM	> 10 µM	> 10 µM
C#CCN(C)[C@H](C)Cc1ccccc1 [SELEGILINE]	> 10 µM	> 10 µM	> 10 µM	> 10 µM		> 30 µM	> 10 µM	> 10 µM		> 10 µM	> 10 µM	> 10 µM	
Cc1c(C(=O)Nc2ccc(N3C[C@@H](C)O[C@@H](C)C3)nc2)cccc1-c1ccc(OC(F)(F)F)cc1 [SONIDEGIB]	> 10 µM		> 30 µM	> 30 µM	> 10 µM		> 10 µM	> 10 µM	> 10 µM				
CC[C@]1(O)C[C@@H]2CN(CCc3c([nH]c4ccccc34)[C@@](C(=O)OC)(c3cc4c(cc3OC)N(C)[C@H]3[C@@](O)(C(N)=O)[C@H](O)[C@]5(CC)C=CCN6CC[C@]43[C@@H]65)C2)C1 [VINDESINE]	> 30 µM	> 30 µM	> 30 µM	> 30 µM		> 30 µM	> 30 µM	> 30 µM		> 30 µM	> 30 µM	> 30 µM	
